Data: PubChem BioAssay AID2060357 (Molecular Pharmacology Branch, DTP, NCI, 2025)
Values joined by “and” are separate entries in the source; they are usually repeats but may differ in a detail not shown here. Equal values may be shown once.

Test system: 292921-168-R-J2-PDC spheroids with HUVEC/MSC, viability
Experiment: Anticancer human tumor 292921-168-R-J2-PDC patient-derived pancreatic carcinoma cell line growth inhibition [TAK]
Details: for viability, T/C: stronger effect = lower value
Description: Combinatorial screen of targeted agents with TAK-243 and ipatasertib in multi-cell type tumor spheroids
A high-throughput screen of multi-cell type tumor spheroids was designed to identify active combinations of targeted small molecules and TAK-243 or ipatasertib. Complex spheroids include a stromal component modeled by human endothelial cells (HUVEC) and fibroblasts modeled by human mesenchymal stem cells (MSCs). The concentration ranges selected for each drug and investigational agent were based upon clinically achievable concentrations if the clinical Cmax of the agent was known.
Compounds. The drugs and investigational agents: TAK-243 (785004), ipatasertib (767898), everolimus (733504), selumetinib (741078), bortezomib (756655), trametinib (758246), ixazomib (758254), vemurafenib (761431), dabrafenib (764134), sapanisertib (764658), alpelisib (765974), and copanlisib (816437), were obtained from the National Cancer Institute (NCI) Developmental Therapeutics Program Chemical Repository. The FDA-approved anticancer drug set is available from the NCI Developmental Therapeutics Program. […] The stock solutions were prepared in dimethyl sulfoxide (DMSO, Sigma-Aldrich, St. Louis, MO, cat. D2650) at 800-fold the tested concentration and stored at -70 degrees C prior to their use. All drugs and investigational agents were tested over a range starting from a high concentration at or near the clinical Cmax and decreasing in half-log increments. If the clinical Cmax for an agent had not been determined, the highest concentration tested was 10 microM.
NCI60 Cell Culture. NCI60 cell lines were obtained from the NCI Developmental Therapeutics Program Tumor Repository. For each lot of cells, the Repository performed Applied Biosystems AmpFLSTR Identifiler testing with PCR amplification to confirm consistency with the published Identifier STR profile for each cell line. Cells were kept in continuous culture for no more than 20 passages. The optimal seeding densities for each of the cell lines at each time point assessed were determined prior to performing the concentration response studies. Briefly, the NCI60 human tumor lines were grown as monolayers in RPMI 1640 medium supplemented with 10% FBS and 2 mmol/L L-glutamine.
An additional 2 lines were from the NCI60 cell line panel including melanomas, MALME-3M and SK-MEL-2. Pooled donor human umbilical vein endothelial cells (HUVEC, Lonza, cat. CC-2519) and human mesenchymal stem cells (hMSC, Lonza, cat. PT-2501) were purchased from Lonza (Walkersville, MD).
PDMR cell lines were grown in complete medium (DC medium): Dulbecco's modified Eagle's medium (DMEM)/F12 supplemented with 5% fetal bovine serum (FBS), 2 mM L-glutamine, 100 U/mL penicillin and 100 µg/ml streptomycin, 0.4 µg/ml hydrocortisone, 10 ng/ml epidermal growth factor (EGF) recombinant human protein, 24 µg/mL adenine, and 0.1 mg/mL primocin. During culture from frozen stock vials, PDMR cells were cultured in the same medium containing 10 µM Y-27632 (see Table 3). The PDCs were cultured in complete DMEM/F12 media without 10 microM Y-27632 dihydrochloride for at least two passages prior to the screen. The pooled donor HUVEC and hMSC were cultured in endothelial cell growth medium 2 (PromoCell, Heidelberg, Germany, cat. C-22011) and mesenchymal stem cell growth medium 2 (PromoCell, cat. C-28009), respectively. For all experiments, HUVEC and hMSC were used at passages </=5.
For the pre-screen, cell seeding densities were determined from a titration spanning the range from 5,000 to 313 cells per well. The mct-spheroids including 60% malignant cells, 25% HUVEC and 15% MSC dispensed as a mixture into U-bottom Ultra-Low Attachment 384-well plates (Corning, NY)
High-throughput Drug Combination Screening.
Prior to their inoculation into 384-well plates, malignant cells, HUVEC, and hMSC were removed from T flasks using TrypLE express (Thermo Fisher Scientific, cat. 12605036) and harvested by centrifugation for 5 min at 233 x g. […]
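Note: spheroids exposed to drugs for seven days before readout.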

CC(C)NCC(C(=O)N1CCN(c2ncnc3c2C(C)CC3O)CC1)c1ccc(Cl)cc1 (configuration not stated)
viability, T/C (compound 0.3 µM): 87.8% [middle of 10 runs] | viability, T/C (compound 0.949 µM): 83% [middle of 10 runs] | viability, T/C (compound 3 µM): 77.3% [middle of 10 runs] | viability, T/C (compound 9.49 µM): 62.3% [middle of 10 runs] | viability, T/C (compound 30 µM): 42.4% [middle of 10 runs] | IC50 (compound alone, run of 02/20/2020): 18800 nM

COC1CC2CCC(C)C(O)(O2)C(=O)C(=O)N2CCCCC2C(=O)OC(C(C)CC2CCC(OCCO)C(OC)C2)CC(=O)C(C)C=C(C)C(O)C(OC)C(=O)C(C)CC(C)C=CC=CC=C1C (configuration not stated)
viability, T/C (compound 0.000316 µM): 83.9% and 83.3% | viability, T/C (compound 0.001 µM): 76.6% and 71.4% | viability, T/C (compound 0.00316 µM): 71.5% and 66.5% | viability, T/C (compound 0.01 µM): 64.1% and 59% | viability, T/C (compound 0.0316 µM): 59.8% and 64.2% | viability, T/C (compound 0.1 µM): 59.2% and 62.3% | IC50 (curve of compound): > 100 nM

CCCS(=O)(=O)Nc1ccc(F)c(C(=O)c2c[nH]c3ncc(-c4ccc(Cl)cc4)cc23)c1F
viability, T/C (compound 0.316 µM): 113% and 128% | viability, T/C (compound 1 µM): 117% and 127% | viability, T/C (compound 3.16 µM): 108% and 113% | viability, T/C (compound 10 µM): 55.1% and 67.5% | viability, T/C (compound 31.6 µM): 99.6% and 62.3% | viability, T/C (compound 100 µM): 80% and 94.5% | IC50 (curve of compound): > 100000 nM

CC(C)n1nc(-c2ccc3oc(N)nc3c2)c2c(N)ncnc21
viability, T/C (compound 0.000316 µM): 101% and 103% | viability, T/C (compound 0.001 µM): 87.1% and 91% | viability, T/C (compound 0.00316 µM): 75.5% and 74.6% | viability, T/C (compound 0.01 µM): 61.5% and 58.3% | viability, T/C (compound 0.0316 µM): 40.3% and 43% | viability, T/C (compound 0.1 µM): 31.9% and 32.7% | IC50 (curve of compound): 19.3 nM and 18.6 nM

CC(C)n1nc(-c2ccc3oc(N)nc3c2)c2c(N)ncnc21 + CC(C)NCC(C(=O)N1CCN(c2ncnc3c2C(C)CC3O)CC1)c1ccc(Cl)cc1
IC50 (curve of first compound, second compound 0.3 µM): 9.58 nM | IC50 (curve of first compound, second compound 0.949 µM): 8.57 nM | IC50 (curve of first compound, second compound 3 µM): 6.94 nM | IC50 (curve of first compound, second compound 9.49 µM): 2.52 nM | IC50 (curve of first compound, second compound 30 µM): < 0.316 nM | viability, T/C (second compound 0.3 µM, first compound 0.000316 µM): 81% | viability, T/C (second compound 0.3 µM, first compound 0.001 µM): 77.2% | viability, T/C (second compound 0.3 µM, first compound 0.00316 µM): 67.4% | viability, T/C (second compound 0.3 µM, first compound 0.01 µM): 49.9% | viability, T/C (second compound 0.3 µM, first compound 0.0316 µM): 35.3% | viability, T/C (second compound 0.3 µM, first compound 0.1 µM): 32.2% | viability, T/C (second compound 0.949 µM, first compound 0.000316 µM): 81.6% | viability, T/C (second compound 0.949 µM, first compound 0.001 µM): 70.9% | viability, T/C (second compound 0.949 µM, first compound 0.00316 µM): 63.7% | viability, T/C (second compound 0.949 µM, first compound 0.01 µM): 48.9% | viability, T/C (second compound 0.949 µM, first compound 0.0316 µM): 35% | viability, T/C (second compound 0.949 µM, first compound 0.1 µM): 32.2% | viability, T/C (second compound 3 µM, first compound 0.000316 µM): 73.6% | viability, T/C (second compound 3 µM, first compound 0.001 µM): 73% | viability, T/C (second compound 3 µM, first compound 0.00316 µM): 62.2% | viability, T/C (second compound 3 µM, first compound 0.01 µM): 43.8% | viability, T/C (second compound 3 µM, first compound 0.0316 µM): 34.2% | viability, T/C (second compound 3 µM, first compound 0.1 µM): 29% | viability, T/C (second compound 9.49 µM, first compound 0.000316 µM): 63.7% | viability, T/C (second compound 9.49 µM, first compound 0.001 µM): 57% | viability, T/C (second compound 9.49 µM, first compound 0.00316 µM): 48.3% | viability, T/C (second compound 9.49 µM, first compound 0.01 µM): 37.8% | viability, T/C (second compound 9.49 µM, first compound 0.0316 µM): 27.6% | viability, T/C (second compound 9.49 µM, first compound 0.1 µM): 26.3% | viability, T/C (second compound 30 µM, first compound 0.000316 µM): 43.4% | viability, T/C (second compound 30 µM, first compound 0.001 µM): 39.7% | viability, T/C (second compound 30 µM, first compound 0.00316 µM): 33.7% | viability, T/C (second compound 30 µM, first compound 0.01 µM): 26.4% | viability, T/C (second compound 30 µM, first compound 0.0316 µM): 23.9% | viability, T/C (second compound 30 µM, first compound 0.1 µM): 21.7%
